“And” between values parts separate entries of the source, which are not always exact repeats. Equal entries are not always repeated.
System: 429239-143-T-J1-PDC complex spheroid viability
Test: Anticancer human tumor 429239-143-T-J1-PDC patient-derived small cell lung carcinoma cell line growth inhibition [POLQ]
Conditions: for viability, T/C: stronger effect = lower value
Protocol: Multicellular complex tumor spheroid response to Polymerase (POL) inhibitors (novobiocin, ART-558, RP6685) in combination with a variety of drugs and investigational agents in selected tumor cell lines
The POL inhibitors (novobiocin, ART-558, and RP6685) were evaluated both individually and in combination with standard of care and investigational anticancer small molecules within a complex spheroid model of solid tumors. . Complex spheroids include a stromal component modeled by human endothelial cells (HUVEC) and fibroblasts modeled by human mesenchymal stem cells (MSCs). The concentration ranges selected for each drug and investigational agent were based upon clinically achievable concentrations if the clinical Cmax of the agent was known.
Compounds. The drugs and investigational agents: novobiocin (NSC847541), ART-558 (NSC835418), RP-6685 (NSC848927), peposertib (NSC802822), ceralasertib (NSC780249), elimusertib (NSC800525), camonsertib (NSC841442), AZD-1390 (NSC803789), olaparib (NSC753686), talazoparib (NSC767125), rucaparib (NSC756644), sotorasib (NSC818433), MRTX-1133 (NSC836407), SN-38 (NSC673596), topotecan (NSC609699), epotoside (NSC141540), doxorubicin (NSC123127), gemcitabine (NSC613327), 5-fluorouracil (NSC19893), paclitaxel (NSC125973), vemurafenib (NSC761431), MSA-2 (NSC828583), SN-011 (NSC837082), adavosertib (NSC754352), prexasertib (NSC758257), carboplatin (NSC241240) and oxaliplatin (NSC266046), were obtained from the National Cancer Institute (NCI) Developmental Therapeutics Program Chemical Repository (21). The FDA-approved anticancer drug set is available from the Developmental Therapeutics Program at https://dtp.cancer.gov/organization/dscb/obtaining/. […] The stock solutions were prepared in dimethyl sulfoxide (DMSO, Sigma-Aldrich, St. Louis, MO, cat. D2650), except for the platinum compounds which were prepared in saline (Quality Biological, Gaithersburg, MD, cat. 114-055-101), at 800-fold the tested concentration and stored at -70 degrees C prior to their use. All drugs and investigational agents were tested over a range starting from a high concentration at or near the clinical Cmax and decreasing in half-log increments. If the clinical Cmax for an agent had not been determined, the highest concentration tested was 10 microM, except for SN-38, which was tested at a high concentration of 1 microM.
Cell Culture. All cells were maintained in an incubator at 37 degrees C and 5% CO2 with 95% humidity. The PDC lines were cultured according to standard operating procedures established by the NCI PDMR (https://pdmr.cancer.gov). Table 3 of the manuscript, lists the cell lines along with the number of the three cell types plated to form the mct-spheroids and media for tumor cell growth. After thawing, all PDC lines, except 997537-175-T-J1-PDC and 415267-285-R-J2-PDC, were cultured in Matrigel-coated flasks prepared with a working solution of 1X Ham's F-12 nutrient mix, without supplementation (Thermo Fisher Scientific, cat. 11765054), 100 U/mL penicillin-streptomycin (Thermo Fisher Scientific, cat. 15140122), and 2.5% Matrigel (Corning Inc., Corning, NY, cat. 354248) for the first three passages. The two PDC lines 997537-175-T-J1-PDC and 415267-285-R-J2-PDC were cultured on uncoated flasks. The 857933-349-R-J2-PDC line was cultured in 6C/Colon 1B media containing advanced DMEM/F-12 (Thermo Fisher Scientific, cat. 12634028), 10 mM HEPES (Thermo Fisher Scientific, cat. 15630080), 1X GlutaMAX supplement (Thermo Fisher Scientific, cat. 35050061), 0.1 mg/mL primocin (InvivoGen, San Diego, CA, cat. ant-pm-2), 10% defined fetal bovine serum, heat inactivated (HyClone Laboratories Inc., Logan, UT, cat. SH30070.03HI), 50% L-WRN conditioned media (ATCC, cat. CRL-3276), 1.25 mM N-Acetyl-L-cysteine (Sigma-Aldrich, cat. A9165), 10 mM nicotinamide (Sigma-Aldrich, cat. N0636), 1X B-27 supplement (Thermo Fisher Scientific, cat. 17504044), 1X N-2 supplement (Thermo Fisher Scientific, cat. […]

[1] = curve of first compound, second compound 0.0316 µM
[2] = curve of first compound, second compound 0.1 µM
[3] = curve of first compound, second compound 0.316 µM
[4] = curve of first compound, second compound 1 µM
[5] = curve of first compound, second compound 3.16 µM
[6] = curve of first compound, second compound 10 µM
[7] = second compound 0.0316 µM, first compound 0.0316 µM
[8] = second compound 0.0316 µM, first compound 0.1 µM
[9] = second compound 0.0316 µM, first compound 0.316 µM
[10] = second compound 0.0316 µM, first compound 1 µM
[11] = second compound 0.0316 µM, first compound 3.16 µM
[12] = second compound 0.0316 µM, first compound 10 µM
[13] = second compound 0.1 µM, first compound 0.0316 µM
[14] = second compound 0.1 µM, first compound 0.1 µM
[15] = second compound 0.1 µM, first compound 0.316 µM
[16] = second compound 0.1 µM, first compound 1 µM
[17] = second compound 0.1 µM, first compound 3.16 µM
[18] = second compound 0.1 µM, first compound 10 µM
[19] = second compound 0.316 µM, first compound 0.0316 µM
[20] = second compound 0.316 µM, first compound 0.1 µM
[21] = second compound 0.316 µM, first compound 0.316 µM
[22] = second compound 0.316 µM, first compound 1 µM
[23] = second compound 0.316 µM, first compound 3.16 µM
[24] = second compound 0.316 µM, first compound 10 µM
[25] = second compound 1 µM, first compound 0.0316 µM
[26] = second compound 1 µM, first compound 0.1 µM
[27] = second compound 1 µM, first compound 0.316 µM
[28] = second compound 1 µM, first compound 1 µM
[29] = second compound 1 µM, first compound 3.16 µM
[30] = second compound 1 µM, first compound 10 µM
[31] = second compound 3.16 µM, first compound 0.0316 µM
[32] = second compound 3.16 µM, first compound 0.1 µM
[33] = second compound 3.16 µM, first compound 0.316 µM
[34] = second compound 3.16 µM, first compound 1 µM
[35] = second compound 3.16 µM, first compound 3.16 µM
[36] = second compound 3.16 µM, first compound 10 µM
[37] = second compound 10 µM, first compound 0.0316 µM
[38] = second compound 10 µM, first compound 0.1 µM
[39] = second compound 10 µM, first compound 0.316 µM
[40] = second compound 10 µM, first compound 1 µM
[41] = second compound 10 µM, first compound 3.16 µM
[42] = second compound 10 µM, first compound 10 µM
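Further: luminescence signal used as surrogate measure of viable cells; spheroids exposed to compounds for seven days before readout.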
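Wherever viability, T/C is given: 100% = DMSO vehicle control viability as luminescence relative to vehicle.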

## CC(C)n1c(=O)n(C)c2cnc3cc(F)c(-c4ccc(OCCCN5CCCCC5)nc4)cc3c21 + Nc1ccc(C#CCN(C(=O)Cc2ncc(C(F)(F)F)cc2C(F)(F)F)c2ccc(F)cc2)nn1
[1]
  IC50: > 10 µM
[2]
  IC50: > 10 µM
[3]
  IC50: > 10 µM
[4]
  IC50: > 10 µM
[5]
  IC50: > 10 µM
[6]
  IC50: > 10 µM
[7]
  viability, T/C: 98.5%
[8]
  viability, T/C: 107%
[9]
  viability, T/C: 92.2%
[10]
  viability, T/C: 109%
[11]
  viability, T/C: 102%
[12]
  viability, T/C: 97.8%
[13]
  viability, T/C: 102%
[14]
  viability, T/C: 105%
[15]
  viability, T/C: 99.9%
[16]
  viability, T/C: 102%
[17]
  viability, T/C: 106%
[18]
  viability, T/C: 90.9%
[19]
  viability, T/C: 101%
[20]
  viability, T/C: 107%
[21]
  viability, T/C: 93.3%
[22]
  viability, T/C: 104%
[23]
  viability, T/C: 106%
[24]
  viability, T/C: 91.1%
[25]
  viability, T/C: 99.1%
[26]
  viability, T/C: 101%
[27]
  viability, T/C: 105%
[28]
  viability, T/C: 102%
[29]
  viability, T/C: 105%
[30]
  viability, T/C: 93%
[31]
  viability, T/C: 97.1%
[32]
  viability, T/C: 91.4%
[33]
  viability, T/C: 98.9%
[34]
  viability, T/C: 98.6%
[35]
  viability, T/C: 100%
[36]
  viability, T/C: 91.1%
[37]
  viability, T/C: 105%
[38]
  viability, T/C: 103%
[39]
  viability, T/C: 97.3%
[40]
  viability, T/C: 99.4%
[41]
  viability, T/C: 91.5%
[42]
  viability, T/C: 94.3%

## Cn1ncnc1[C@H]1c2n[nH]c(=O)c3cc(F)cc(c23)N[C@@H]1c1ccc(F)cc1
Compound 0.000316 µM
  viability, T/C: 101% and 105% and 93.1%
Compound 0.001 µM
  viability, T/C: 96.8% and 94.6% and 88.7%
Compound 0.00316 µM
  viability, T/C: 78% and 94.1% and 76.6%
Compound 0.01 µM
  viability, T/C: 71% and 86% and 60.1%
Compound 0.0316 µM
  viability, T/C: 40.5% and 78.3% and 47.5%
Compound 0.1 µM
  viability, T/C: 30.4% and 63.1% and 29%
Curve of compound
  IC50: 0.0234 µM and > 0.1 µM

## C=CC(=O)N1CCN(c2nc(=O)n(-c3c(C)ccnc3C(C)C)c3nc(-c4c(O)cccc4F)c(F)cc23)C(C)C1 (stereo unspecified) + COC1C(OC(N)=O)C(O)C(Oc2ccc3c(O)c(NC(=O)c4ccc(O)c(CC=C(C)C)c4)c(=O)oc3c2C)OC1(C)C
[1]
  IC50: > 10 µM
[2]
  IC50: > 10 µM
[3]
  IC50: > 10 µM
[4]
  IC50: > 10 µM
[5]
  IC50: > 10 µM
[6]
  IC50: > 10 µM
[7]
  viability, T/C: 107%
[8]
  viability, T/C: 89.5%
[9]
  viability, T/C: 94%
[10]
  viability, T/C: 94.6%
[11]
  viability, T/C: 107%
[12]
  viability, T/C: 112%
[13]
  viability, T/C: 104%
[14]
  viability, T/C: 94.3%
[15]
  viability, T/C: 93.6%
[16]
  viability, T/C: 104%
[17]
  viability, T/C: 87.9%
[18]
  viability, T/C: 97.7%
[19]
  viability, T/C: 96.7%
[20]
  viability, T/C: 90.8%
[21]
  viability, T/C: 91.7%
[22]
  viability, T/C: 91.7%
[23]
  viability, T/C: 103%
[24]
  viability, T/C: 101%
[25]
  viability, T/C: 98.4%
[26]
  viability, T/C: 94.6%
[27]
  viability, T/C: 99.8%
[28]
  viability, T/C: 96.6%
[29]
  viability, T/C: 103%
[30]
  viability, T/C: 101%
[31]
  viability, T/C: 94.9%
[32]
  viability, T/C: 107%
[33]
  viability, T/C: 95.3%
[34]
  viability, T/C: 95.3%
[35]
  viability, T/C: 98.7%
[36]
  viability, T/C: 103%
[37]
  viability, T/C: 79.5%
[38]
  viability, T/C: 84.8%
[39]
  viability, T/C: 91.5%
[40]
  viability, T/C: 87.7%
[41]
  viability, T/C: 104%
[42]
  viability, T/C: 103%

Source: PubChem BioAssay AID1963845 (Molecular Pharmacology Branch, DTP, NCI, 2024)
